These results are taken from ChEMBL document CHEMBL1201862, “PubChem BioAssay data set” (2004).

SMILES strings stand for the structures.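 Assay format: 96-well plates, 48-hour exposure. GI50 = concentration required for 50% inhibition of growth.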 Calls of active or inactive are those of the source. Rule as the data show it: active = GI50 up to about 1.1 µM and inactive = higher.

Some test systems named below: SK-MEL-2; HCT-116; SNB-78; 786-0; UO-31; IGROV-1; SNB-19; Malme-3M; DMS-273; EKVX; HL-60; HT-29; SN12C; TK-10; OVCAR-8; T47D; DU-145; MCF7; PC-3; NCI/ADR-RES.
What all share (experiment): NCI tumour cell line growth inhibition, 48 h

Turning to `N#CC1C[C@@H]2CC3(CCC2CN1C(=O)c1ccccc1)OCCO3` (some centres undefined), the GI50 with SK-MEL-2 was 0.0925 µM (active); in the assay on HCT-116, > 100 µM (inactive); in the assay with SNB-78 it was > 100 µM (inactive); in the assay with 786-0 it was > 100 µM (inactive); in the assay on UO-31, > 100 µM (inactive); in the assay with IGROV-1, > 100 µM (inactive). Further, the GI50 with SNB-19, in the assay on Malme-3M, in the assay with DMS-273, with EKVX, in the assay on HL-60 and in the assay on HT-29 was > 100 µM (inactive) each time. Besides, the GI50 in the assay on SN12C, in the assay on TK-10 and with OVCAR-8 was > 100 µM (inactive) throughout.

As to `CN(C)NC(=S)NC12CC3CC(CC(C3)C1)C2`, the GI50 in the assay with SK-MEL-2, in the assay on HCT-116, in the assay on SNB-78, with 786-0, with UO-31 and with IGROV-1 was > 100 µM (inactive) throughout. The GI50 with SNB-19, with Malme-3M, in the assay on DMS-273, in the assay on EKVX, in the assay with HL-60 and with HT-29 was > 100 µM (inactive) in each case. The GI50 with SN12C, in the assay on TK-10 and in the assay on OVCAR-8 was > 100 µM (inactive) each time.

Regarding `CCOC1C(Br)Cn2c(=O)c3cc4ccccc4cc3c(=O)n2C1C` (centres undefined), the GI50 in the assay on SK-MEL-2 was > 100 µM (inactive); in the assay on HCT-116 it was 58.9 µM (inactive); with SNB-78, > 100 µM (inactive); with 786-0, > 100 µM (inactive); in the assay with UO-31, 78.5 µM (inactive); in the assay with IGROV-1 it was > 100 µM (inactive). Also, the GI50 with SNB-19 was > 100 µM (inactive); in the assay on Malme-3M it was > 100 µM (inactive); in the assay on DMS-273 it was 40.6 µM (inactive); in the assay on EKVX, 47.6 µM (inactive); with HL-60 it was 44.9 µM (inactive); in the assay on HT-29, 27.5 µM (inactive). The GI50 in the assay with SN12C, in the assay with TK-10 and with OVCAR-8 was > 100 µM (inactive) throughout.

For the molecule `O=C1CCCCC1C1(O)C(=O)Nc2cc(F)ccc21` (centres undefined), the GI50 in the assay with SK-MEL-2, with HCT-116, in the assay on SNB-78, with 786-0, in the assay with UO-31 and in the assay on IGROV-1 was > 100 µM (inactive) in each case. For the same molecule, the GI50 in the assay on SNB-19, with Malme-3M, with DMS-273, with EKVX, in the assay with HL-60 and with HT-29 was > 100 µM (inactive) throughout. Further, the GI50 in the assay with SN12C, in the assay on TK-10 and in the assay with OVCAR-8 was > 100 µM (inactive) throughout.

Take `Cc1cccc(C)c1NC(=O)CCCC(=O)C1CCC/C1=N\NC(=O)C(=O)NN` (centres undefined): the GI50 in the assay on SK-MEL-2, in the assay with HCT-116, in the assay on SNB-78, with 786-0, with UO-31 and in the assay with SNB-19 was > 100 µM (inactive) each time. The GI50 in the assay on Malme-3M, in the assay with DMS-273, with EKVX, in the assay with HL-60, in the assay with HT-29 and in the assay on SN12C was > 100 µM (inactive) each time. For the same molecule, the GI50 with TK-10 and in the assay with OVCAR-8 was > 100 µM (inactive) each time.

`COc1ccc(C(=O)C(c2ccc(OC)cc2)C2(O)C(=O)Nc3ccc([N+](=O)[O-])cc32)cc1` (centres undefined): the GI50 in the assay on SK-MEL-2, in the assay with HCT-116, with SNB-78, in the assay with 786-0, in the assay with UO-31 and in the assay on IGROV-1 was > 100 µM (inactive) throughout. Moreover, the GI50 in the assay with SNB-19 is > 100 µM (inactive); in the assay with Malme-3M it was > 100 µM (inactive); in the assay with DMS-273 it was > 100 µM (inactive); in the assay with EKVX, > 100 µM (inactive); with HL-60 it was 70.8 µM (inactive); in the assay with HT-29, > 100 µM (inactive). The GI50 in the assay on SN12C was 12.1 µM (inactive); in the assay on TK-10, > 100 µM (inactive); with OVCAR-8, > 100 µM (inactive).

`CN/N=C(/CCN1CCCC1)CC(c1ccccc1)c1c(O)c2ccccc2oc1=O` (centres undefined): the GI50 was 49.4 µM (inactive) with T47D; > 100 µM (inactive) with SK-MEL-2; > 100 µM (inactive) with HCT-116; > 100 µM (inactive) in the assay on SNB-78; > 100 µM (inactive) in the assay with 786-0; > 67.1 µM (inactive) in the assay on UO-31. For the same molecule, the GI50 was > 100 µM (inactive) in the assay with IGROV-1; > 100 µM (inactive) in the assay on SNB-19; > 100 µM (inactive) in the assay on DU-145; 39.4 µM (inactive) with Malme-3M; > 100 µM (inactive) in the assay with DMS-273; > 100 µM (inactive) with MCF7. For the same molecule, the GI50 with PC-3 was > 100 µM (inactive); in the assay on EKVX, > 100 µM (inactive); with HL-60 it was 61.5 µM (inactive); with HT-29 it was > 100 µM (inactive); in the assay on SN12C it was > 100 µM (inactive); in the assay with TK-10, > 100 µM (inactive). Moreover, the GI50 with OVCAR-8 and in the assay on NCI/ADR-RES was > 100 µM (inactive) throughout.

For the molecule `O=C(CP(=O)(O)O)c1cccs1`, the GI50 in the assay with SK-MEL-2, in the assay with HCT-116, with SNB-78, in the assay with 786-0, in the assay on UO-31 and with IGROV-1 was > 100 µM (inactive) throughout. The GI50 with SNB-19, in the assay with Malme-3M, with DMS-273, with EKVX, with HL-60 and in the assay with HT-29 was > 100 µM (inactive) throughout. Further, the GI50 with SN12C, in the assay on TK-10 and in the assay on OVCAR-8 was > 100 µM (inactive) in each case.

Consider `CC(N)Cc1ccc(Cl)c(Cl)c1` (centres undefined), for which the GI50 in the assay with SK-MEL-2 was 19.4 µM (inactive); with HCT-116 it was 35.1 µM (inactive); with SNB-78, 28.4 µM (inactive); in the assay with 786-0 it was 41.5 µM (inactive); in the assay on UO-31, 19.8 µM (inactive); in the assay with IGROV-1 it was 51.6 µM (inactive). Also, the GI50 with SNB-19 was > 96.6 µM (inactive); in the assay on Malme-3M, 19.6 µM (inactive); in the assay on DMS-273 it was 39.4 µM (inactive); in the assay with EKVX, 41.5 µM (inactive); with HL-60 it was 18.6 µM (inactive); in the assay with HT-29, 24.3 µM (inactive). For the same molecule, the GI50 in the assay on SN12C was 30.2 µM (inactive); with TK-10 it was 22.6 µM (inactive); with OVCAR-8, > 66.2 µM (inactive).

Turning to `NC(=S)N/N=C1/C(=O)N(c2ccccc2)C(=O)C1C(=O)Nc1ccccc1` (centres undefined), the GI50 in the assay with SK-MEL-2, in the assay on HCT-116, with SNB-78, in the assay on 786-0, in the assay with UO-31 and with IGROV-1 was > 100 µM (inactive) each time. The GI50 in the assay with SNB-19, in the assay on Malme-3M, with DMS-273, in the assay with EKVX, in the assay with HL-60 and in the assay on HT-29 was > 100 µM (inactive) in each case. The GI50 with SN12C, in the assay with TK-10 and in the assay with OVCAR-8 was > 100 µM (inactive) throughout.

`O=C1CCCc2c(O)ccc(O)c21`: the GI50 in the assay on SK-MEL-2, in the assay on HCT-116, in the assay with SNB-78, with 786-0, in the assay with UO-31 and in the assay with IGROV-1 was > 100 µM (inactive) throughout. Also, the GI50 in the assay on SNB-19 is > 100 µM (inactive); in the assay with Malme-3M, > 100 µM (inactive); in the assay on DMS-273 it was > 100 µM (inactive); in the assay with EKVX, 85.7 µM (inactive); with HL-60 it was 22.8 µM (inactive); in the assay on HT-29, > 100 µM (inactive). Also, the GI50 in the assay on SN12C, with TK-10 and with OVCAR-8 was > 100 µM (inactive) each time.

For `COc1cc2cc3c4c(cc(OC)c(OC)c4c2cc1OC)CCN3C(=O)OCCN1CCNCC1`, the GI50 with SK-MEL-2 was 19.3 µM (inactive); with HCT-116, 11.9 µM (inactive); in the assay with SNB-78 it was 16 µM (inactive); in the assay on 786-0 it was 11.6 µM (inactive); with UO-31, 14.9 µM (inactive); with IGROV-1 it was 17.3 µM (inactive). For the same molecule, the GI50 in the assay with SNB-19 was 21.9 µM (inactive); with Malme-3M, 17.3 µM (inactive); in the assay with DMS-273, 13.5 µM (inactive); in the assay on EKVX it was 15.1 µM (inactive); in the assay on HL-60 it was 13.2 µM (inactive); with HT-29, 12.6 µM (inactive). The GI50 in the assay with SN12C is 15.9 µM (inactive); with TK-10, 15 µM (inactive); in the assay with OVCAR-8 it was 15.9 µM (inactive).
